# Data from article PMC8155022 (Scientific Reports, 2021).
# Values joined by “and” are separate entries in the source; they are usually repeats but may differ in a detail not shown here. Identical values can stand only once. Like-named read-outs stand apart in the source and are kept apart here.
# Experiments:
# PPARγ = molecular target: T1, PPARγ (Homo sapiens, UniProt P37231); test: nuclear receptor cellular GAL4 reporter assay; format: cell-based; details: agonist and antagonist mode; read-out: potency in agonist and antagonist mode
# T1 construct: expressed in transfected cells
# DA-T transporter (h) = molecular target: T2, DA-T transporter (h) (Homo sapiens, UniProt Q01959); test: Cerep panel; format: binding
# T2 construct: purchased Cerep (receptors, ion channels, transporters); Eurofins Panlabs (kinases)
# Method: (§1) 28 GPCRs were evaluated through cAMP or calcium FLIPR assays[67]. A panel of 52 different receptors, ion channels and transporters was tested by Cerep, Inc. (Redmond, WA).
# MT1 (h) = molecular target: T3, MT1 (h) (Homo sapiens, UniProt P48039); test: Cerep panel; format: binding
# T3 construct: purchased Cerep (receptors, ion channels, transporters); Eurofins Panlabs (kinases)
# Method: (§2) A panel of 52 different receptors, ion channels and transporters was tested by Cerep, Inc. (Redmond, WA).
# TRα = TRα (Homo sapiens, UniProt P10827); test: nuclear receptor cellular GAL4 reporter assay; format: cell-based; details: agonist and antagonist mode; read-out: potency in agonist and antagonist mode
# ERα = molecular target: T4, ERα (Homo sapiens, UniProt P03372); test: nuclear receptor cellular GAL4 reporter assay; format: cell-based; details: agonist and antagonist mode; read-out: potency in agonist and antagonist mode
# T4 construct: expressed in transfected cells
# PAK4(h) = molecular target: T5, PAK4(h) (Homo sapiens, UniProt O96013); test: Kinase panel; format: biochemical
# T5 construct: purchased Cerep (receptors, ion channels, transporters); Eurofins Panlabs (kinases)
# Method: (§3) Kinase selectivity was conducted by Eurofins Panlabs Inc (St Charles, MO).
# TrkC(h) = molecular target: T6, TrkC(h) (Homo sapiens, UniProt Q16288); test: Kinase panel; format: biochemical
# T6 construct: purchased Cerep (receptors, ion channels, transporters); Eurofins Panlabs (kinases)
# Method: as §3
# 5-HT1B = molecular target: T7, 5-HT1B (Rattus norvegicus, UniProt P28564); test: Cerep panel; format: binding
# T7 construct: purchased Cerep (receptors, ion channels, transporters); Eurofins Panlabs (kinases)
# Method: as §2
# H1 = H1 (Homo sapiens, UniProt P35367); test: GPCR panel, cAMP or calcium FLIPR assays; format: cell-based
# Method: (§4) 28 GPCRs were evaluated through cAMP or calcium FLIPR assays[67].
# CCKA = CCKA (Homo sapiens, UniProt P32238); test: GPCR panel, cAMP or calcium FLIPR assays; format: cell-based
# Method: as §4
# [1] = mouse PK/PD model, plasma exposure; format: in vivo; details: female, C57B6, mouse, 100 mg/kg oral
# From the text: Compound concentrations are also listed as undiluted (measured) and diluted (extrapolated) in Supplementary Table S2.
# Plk1(h) = molecular target: T8, Plk1(h) (Homo sapiens, UniProt P53350); test: Kinase panel; format: biochemical
# T8 construct: purchased Cerep (receptors, ion channels, transporters); Eurofins Panlabs (kinases)
# Method: as §3
# 5-HT1A (h) = molecular target: T9, 5-HT1A (h) (Homo sapiens, UniProt P08908); test: Cerep panel; format: binding
# T9 construct: purchased Cerep (receptors, ion channels, transporters); Eurofins Panlabs (kinases)
# Method: as §2
# M2 (h) = molecular target: T10, M2 (h) (Homo sapiens, UniProt P08172); test: Cerep panel; format: binding
# T10 construct: purchased Cerep (receptors, ion channels, transporters); Eurofins Panlabs (kinases)
# Method: as §2
# ERβ = molecular target: T11, ERβ (Homo sapiens, UniProt Q92731); test: nuclear receptor cellular GAL4 reporter assay; format: cell-based; details: agonist and antagonist mode; read-out: potency in agonist and antagonist mode
# T11 construct: expressed in transfected cells
# MAPK1(h) = molecular target: T12, MAPK1(h) (Homo sapiens, UniProt P27361); test: Kinase panel; format: biochemical
# T12 construct: purchased Cerep (receptors, ion channels, transporters); Eurofins Panlabs (kinases)
# Method: as §3
# delta = delta (Homo sapiens, UniProt P41143); test: GPCR panel, cAMP or calcium FLIPR assays; format: cell-based
# Method: as §4
# 5-HT-T = molecular target: T13, 5-HT-T (Homo sapiens, UniProt P31645); test: Cerep panel; format: binding
# T13 construct: purchased Cerep (receptors, ion channels, transporters); Eurofins Panlabs (kinases)
# Method: as §1
# H1 (h) = molecular target: T14, H1 (h) (Homo sapiens, UniProt P35367); test: Cerep panel; format: binding
# T14 construct: purchased Cerep (receptors, ion channels, transporters); Eurofins Panlabs (kinases)
# Method: as §2
# ETA (h) = molecular target: T15, ETA (h) (Homo sapiens, UniProt P25101); test: Cerep panel; format: binding
# T15 construct: purchased Cerep (receptors, ion channels, transporters); Eurofins Panlabs (kinases)
# Method: as §2
# MAPK2(h) = molecular target: T16, MAPK2(h) (Homo sapiens, UniProt P28482); test: Kinase panel; format: biochemical
# T16 construct: purchased Cerep (receptors, ion channels, transporters); Eurofins Panlabs (kinases)
# Method: as §3
# B2 (h) = molecular target: T17, B2 (h) (Homo sapiens, UniProt P30411); test: Cerep panel; format: binding
# T17 construct: purchased Cerep (receptors, ion channels, transporters); Eurofins Panlabs (kinases)
# Method: as §2
# ADRA2A = ADRA2A (Homo sapiens, UniProt P08913); test: GPCR panel, cAMP or calcium FLIPR assays; format: cell-based
# Method: as §4
# rat bone marrow = test: in vivo rat micronucleus test on bone marrow
# GSK3α(h) = molecular target: T18, GSK3α(h) (Homo sapiens, UniProt P49840); test: Kinase panel; format: biochemical
# T18 construct: purchased Cerep (receptors, ion channels, transporters); Eurofins Panlabs (kinases)
# Method: as §3
# 5HT1A = 5HT1A (Homo sapiens, UniProt P08908); test: GPCR panel, cAMP or calcium FLIPR assays; format: cell-based
# Method: as §1
# CLK2(h) = molecular target: T19, CLK2(h) (Homo sapiens, UniProt P49760); test: Kinase panel; format: biochemical
# T19 construct: purchased Cerep (receptors, ion channels, transporters); Eurofins Panlabs (kinases)
# Method: as §3
# EphA2(h) = molecular target: T20, EphA2(h) (Homo sapiens, UniProt P29317); test: Kinase panel; format: biochemical
# T20 construct: purchased Cerep (receptors, ion channels, transporters); Eurofins Panlabs (kinases)
# Method: as §3
# PDGFRβ(h) = molecular target: T21, PDGFRβ(h) (Homo sapiens, UniProt P09619); test: Kinase panel; format: biochemical
# T21 construct: purchased Cerep (receptors, ion channels, transporters); Eurofins Panlabs (kinases)
# Method: as §3
# ERRγ = ERRγ (Homo sapiens, UniProt P62508); test: biochemical TR-FRET assay; details: agonist and antagonist mode; read-out: potency in agonist and antagonist mode
# CHK1(h) = molecular target: T22, CHK1(h) (Homo sapiens, UniProt O14757); test: Kinase panel; format: biochemical
# T22 construct: purchased Cerep (receptors, ion channels, transporters); Eurofins Panlabs (kinases)
# Method: as §3
# CDK1/cyclinB(h) = molecular target: T23, CDK1/cyclinB(h) (Homo sapiens, UniProt P06493); test: Kinase panel; format: biochemical
# T23 construct: purchased Cerep (receptors, ion channels, transporters); Eurofins Panlabs (kinases)
# Method: as §3
# KOP = KOP (Homo sapiens, UniProt P41145); test: GPCR panel, cAMP or calcium FLIPR assays; format: cell-based
# Method: as §4
# A2A (h) = molecular target: T24, A2A (h) (Homo sapiens, UniProt P29274); test: Cerep panel; format: binding
# T24 construct: purchased Cerep (receptors, ion channels, transporters); Eurofins Panlabs (kinases)
# Method: as §2
# [2] = plasma (5-fold diluted, extrapolated), calculated for 5-fold dilution, read-out: concentration in 5-fold diluted plasma
# [3] = plasma, mean ± SD, n=10, read-out: concentration in undiluted plasma
# T12 sequence (P27361 whole entry): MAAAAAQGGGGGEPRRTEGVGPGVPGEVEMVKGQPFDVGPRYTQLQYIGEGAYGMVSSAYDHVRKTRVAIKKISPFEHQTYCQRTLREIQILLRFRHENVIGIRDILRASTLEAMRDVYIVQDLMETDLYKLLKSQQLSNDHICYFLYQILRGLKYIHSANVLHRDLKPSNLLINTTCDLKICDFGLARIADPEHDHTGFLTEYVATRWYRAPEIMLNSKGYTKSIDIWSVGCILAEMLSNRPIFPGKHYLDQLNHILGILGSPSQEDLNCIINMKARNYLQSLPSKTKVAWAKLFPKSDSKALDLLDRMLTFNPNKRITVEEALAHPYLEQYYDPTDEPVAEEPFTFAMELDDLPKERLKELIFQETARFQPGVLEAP
# T3 sequence (P48039 whole entry): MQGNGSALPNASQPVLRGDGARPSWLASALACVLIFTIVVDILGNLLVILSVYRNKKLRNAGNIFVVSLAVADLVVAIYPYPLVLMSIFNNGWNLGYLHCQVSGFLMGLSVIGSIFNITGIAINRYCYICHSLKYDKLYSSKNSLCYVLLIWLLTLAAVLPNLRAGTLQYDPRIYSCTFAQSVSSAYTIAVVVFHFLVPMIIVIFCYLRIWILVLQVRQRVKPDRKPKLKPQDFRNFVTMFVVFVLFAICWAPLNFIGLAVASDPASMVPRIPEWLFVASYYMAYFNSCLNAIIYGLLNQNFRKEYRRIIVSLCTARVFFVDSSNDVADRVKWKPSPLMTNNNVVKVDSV
# T18 sequence (P49840 whole entry): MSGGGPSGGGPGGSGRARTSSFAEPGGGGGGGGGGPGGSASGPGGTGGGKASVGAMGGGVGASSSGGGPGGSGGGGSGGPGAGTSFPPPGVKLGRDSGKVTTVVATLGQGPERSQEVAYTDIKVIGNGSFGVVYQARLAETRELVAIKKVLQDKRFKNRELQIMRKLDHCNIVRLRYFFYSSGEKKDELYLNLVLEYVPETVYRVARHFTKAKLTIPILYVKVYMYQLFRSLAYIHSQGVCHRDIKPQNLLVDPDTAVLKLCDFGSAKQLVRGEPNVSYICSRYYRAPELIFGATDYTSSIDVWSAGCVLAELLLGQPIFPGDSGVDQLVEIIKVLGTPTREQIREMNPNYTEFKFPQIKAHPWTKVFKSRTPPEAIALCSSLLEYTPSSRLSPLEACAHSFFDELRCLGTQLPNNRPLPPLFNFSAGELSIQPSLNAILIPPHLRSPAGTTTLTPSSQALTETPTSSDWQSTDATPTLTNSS
# T10 sequence (P08172 whole entry): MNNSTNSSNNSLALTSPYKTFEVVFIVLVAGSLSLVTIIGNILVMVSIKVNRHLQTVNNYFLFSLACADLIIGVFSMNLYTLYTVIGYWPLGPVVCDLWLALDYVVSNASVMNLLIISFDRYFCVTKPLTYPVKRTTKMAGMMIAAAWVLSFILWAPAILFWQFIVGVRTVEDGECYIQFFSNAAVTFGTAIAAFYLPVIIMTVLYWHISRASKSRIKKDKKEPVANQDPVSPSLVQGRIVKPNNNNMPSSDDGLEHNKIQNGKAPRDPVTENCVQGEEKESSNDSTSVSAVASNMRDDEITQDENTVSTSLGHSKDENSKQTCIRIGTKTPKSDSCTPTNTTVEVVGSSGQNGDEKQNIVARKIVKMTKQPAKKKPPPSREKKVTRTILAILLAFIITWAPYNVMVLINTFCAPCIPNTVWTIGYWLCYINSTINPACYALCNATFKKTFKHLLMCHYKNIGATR
# T9 sequence (P08908 whole entry): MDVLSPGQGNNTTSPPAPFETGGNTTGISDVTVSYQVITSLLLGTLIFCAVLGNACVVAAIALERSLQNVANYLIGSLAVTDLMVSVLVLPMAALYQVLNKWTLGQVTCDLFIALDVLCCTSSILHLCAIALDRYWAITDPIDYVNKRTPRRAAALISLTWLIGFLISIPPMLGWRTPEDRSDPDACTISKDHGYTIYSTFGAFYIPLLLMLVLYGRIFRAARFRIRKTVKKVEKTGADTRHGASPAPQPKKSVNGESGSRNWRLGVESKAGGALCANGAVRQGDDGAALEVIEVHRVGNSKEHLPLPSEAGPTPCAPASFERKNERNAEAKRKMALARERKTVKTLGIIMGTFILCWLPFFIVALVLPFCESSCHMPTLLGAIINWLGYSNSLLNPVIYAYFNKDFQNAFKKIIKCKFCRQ
# 5HT1A, sequence (P08908 whole entry, species assumed): as the sequence (P08908 whole entry) above
# T5 sequence (O96013 whole entry): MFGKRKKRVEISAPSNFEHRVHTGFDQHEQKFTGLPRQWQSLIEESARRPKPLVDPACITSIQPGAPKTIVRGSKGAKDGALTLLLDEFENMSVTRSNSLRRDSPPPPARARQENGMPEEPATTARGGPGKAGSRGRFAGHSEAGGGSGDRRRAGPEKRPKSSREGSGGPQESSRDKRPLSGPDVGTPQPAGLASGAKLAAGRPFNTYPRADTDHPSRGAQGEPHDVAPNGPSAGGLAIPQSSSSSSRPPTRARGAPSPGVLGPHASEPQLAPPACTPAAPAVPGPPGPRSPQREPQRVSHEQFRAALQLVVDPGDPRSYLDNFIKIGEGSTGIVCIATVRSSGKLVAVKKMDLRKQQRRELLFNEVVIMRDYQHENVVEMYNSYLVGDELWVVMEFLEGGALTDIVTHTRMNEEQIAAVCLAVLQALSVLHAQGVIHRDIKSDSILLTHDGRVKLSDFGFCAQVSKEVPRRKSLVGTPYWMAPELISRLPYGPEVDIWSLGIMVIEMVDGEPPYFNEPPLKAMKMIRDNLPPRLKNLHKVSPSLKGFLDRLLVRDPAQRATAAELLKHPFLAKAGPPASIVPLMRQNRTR
# T23 sequence (P06493 whole entry): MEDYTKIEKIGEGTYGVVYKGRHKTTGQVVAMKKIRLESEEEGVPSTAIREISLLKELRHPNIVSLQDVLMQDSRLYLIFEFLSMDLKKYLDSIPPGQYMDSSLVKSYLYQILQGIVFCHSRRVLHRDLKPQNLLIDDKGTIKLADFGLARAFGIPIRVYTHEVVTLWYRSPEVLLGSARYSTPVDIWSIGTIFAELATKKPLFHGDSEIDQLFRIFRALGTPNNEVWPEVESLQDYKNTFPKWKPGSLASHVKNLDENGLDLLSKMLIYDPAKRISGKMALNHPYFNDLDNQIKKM
# T23 sequence (P14635 whole entry partner): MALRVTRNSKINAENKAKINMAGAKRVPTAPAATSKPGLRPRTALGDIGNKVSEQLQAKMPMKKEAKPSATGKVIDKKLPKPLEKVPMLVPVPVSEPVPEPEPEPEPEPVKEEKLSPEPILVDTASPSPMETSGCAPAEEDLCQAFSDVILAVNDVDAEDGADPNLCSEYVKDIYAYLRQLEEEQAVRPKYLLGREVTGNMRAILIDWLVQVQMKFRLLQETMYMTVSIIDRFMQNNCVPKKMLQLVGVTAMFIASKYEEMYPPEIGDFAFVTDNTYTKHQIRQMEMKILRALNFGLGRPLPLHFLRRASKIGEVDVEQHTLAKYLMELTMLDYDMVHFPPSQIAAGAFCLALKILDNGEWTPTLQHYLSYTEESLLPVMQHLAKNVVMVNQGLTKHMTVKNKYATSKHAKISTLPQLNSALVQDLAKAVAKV
# T16 sequence (P28482 whole entry): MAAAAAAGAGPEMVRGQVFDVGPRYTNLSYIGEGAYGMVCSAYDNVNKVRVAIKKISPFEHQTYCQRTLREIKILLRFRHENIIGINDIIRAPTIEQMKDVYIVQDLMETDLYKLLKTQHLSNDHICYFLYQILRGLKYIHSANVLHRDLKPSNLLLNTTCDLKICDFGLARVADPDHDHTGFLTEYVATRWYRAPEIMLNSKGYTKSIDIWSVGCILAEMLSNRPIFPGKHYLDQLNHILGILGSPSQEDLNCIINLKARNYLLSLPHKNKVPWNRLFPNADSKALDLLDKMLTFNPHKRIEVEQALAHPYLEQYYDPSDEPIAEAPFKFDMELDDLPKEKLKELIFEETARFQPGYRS
# T6 sequence (Q16288 32-839): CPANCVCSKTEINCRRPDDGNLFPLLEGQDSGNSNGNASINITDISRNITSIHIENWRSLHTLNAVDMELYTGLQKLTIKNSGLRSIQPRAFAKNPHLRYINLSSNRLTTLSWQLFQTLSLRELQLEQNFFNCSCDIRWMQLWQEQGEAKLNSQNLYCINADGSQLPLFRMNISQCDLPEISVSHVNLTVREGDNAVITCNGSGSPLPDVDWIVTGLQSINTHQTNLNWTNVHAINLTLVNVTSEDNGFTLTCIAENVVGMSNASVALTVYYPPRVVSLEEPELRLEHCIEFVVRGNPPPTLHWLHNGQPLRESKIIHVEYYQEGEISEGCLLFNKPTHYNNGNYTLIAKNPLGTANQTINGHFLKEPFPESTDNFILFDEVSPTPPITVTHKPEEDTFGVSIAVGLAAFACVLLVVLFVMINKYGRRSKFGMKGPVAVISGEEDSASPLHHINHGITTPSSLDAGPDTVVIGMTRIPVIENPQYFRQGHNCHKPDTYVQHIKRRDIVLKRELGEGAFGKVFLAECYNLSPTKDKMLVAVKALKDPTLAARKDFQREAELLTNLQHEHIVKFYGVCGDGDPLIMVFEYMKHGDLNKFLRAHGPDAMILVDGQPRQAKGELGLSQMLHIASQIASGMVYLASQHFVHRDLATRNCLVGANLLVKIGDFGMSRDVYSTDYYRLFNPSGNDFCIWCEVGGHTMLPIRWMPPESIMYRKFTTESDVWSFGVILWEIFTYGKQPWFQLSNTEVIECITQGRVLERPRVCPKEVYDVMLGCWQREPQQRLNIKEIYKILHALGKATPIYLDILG
# TRα, sequence (P10827 163-410 isoform P10827-2 limits assumed): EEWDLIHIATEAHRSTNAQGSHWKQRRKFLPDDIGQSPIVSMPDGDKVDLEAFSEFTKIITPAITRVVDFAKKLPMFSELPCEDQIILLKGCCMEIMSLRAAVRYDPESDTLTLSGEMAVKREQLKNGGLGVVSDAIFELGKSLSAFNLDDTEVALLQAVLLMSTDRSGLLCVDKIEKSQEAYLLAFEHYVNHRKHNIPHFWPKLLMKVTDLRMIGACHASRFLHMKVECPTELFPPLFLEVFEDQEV
smiles,measurement,setting,value
CC1CCCN1C(=O)c1nc(C(=O)NCC(C)(C)O)sc1-c1ccc(C(O)(C(F)(F)F)C(F)(F)F)c(Cl)c1Cl (stereo not drawn) [JNJ-61803534],IC50,PPARγ,> 1.5 µM
same,inhibition at 1 µM,DA-T transporter (h),< 10%
same,inhibition at 10 µM,DA-T transporter (h),< 10%
same,inhibition at 1 µM,MT1 (h),< 10%
same,inhibition at 10 µM,MT1 (h),20.4%
same,IC50,TRα,> 1.5 µM
same,IC50,ERα,> 1.5 µM
same,activity at 1 µM,PAK4(h),104%
same,activity at 10 µM,PAK4(h),103%
same,activity at 1 µM,TrkC(h),92%
same,activity at 10 µM,TrkC(h),88%
same,inhibition at 1 µM,5-HT1B,< 10%
same,inhibition at 10 µM,5-HT1B,15.6%
same,EC50,H1; agonist,> 10 µM
same,IC50,H1; antagonist,> 10 µM
same,EC50,CCKA; agonist,> 10 µM
same,IC50,CCKA; antagonist,> 10 µM
same,concentration at 1 h,[1]; [2],10 ± 2.8 µM
same,concentration at 2 h,[1]; [2],6.1 ± 3.1 µM
same,concentration at 4 h,[1]; [2],5 ± 1.7 µM
same,concentration at 7 h,[1]; [2],2.3 ± 0.5 µM
same,concentration at 12 h,[1]; [2],0.86 ± 0.4 µM
same,concentration at 18 h,[1]; [2],0.24 ± 0.1 µM
same,concentration at 1 h,[1]; [3],31000 ng/mL and 49.8 µM
same,concentration at 2 h,[1]; [3],18900 ng/mL and 30.4 µM
same,concentration at 4 h,[1]; [3],15500 ng/mL and 24.9 µM
same,concentration at 7 h,[1]; [3],11.7 µM and 7280 ng/mL
same,concentration at 12 h,[1]; [3],4.3 µM and 2670 ng/mL
same,concentration at 18 h,[1]; [3],1.2 µM and 759 ng/mL
same,activity at 1 µM,Plk1(h),111%
same,activity at 10 µM,Plk1(h),104%
same,inhibition at 1 µM,5-HT1A (h),< 10%
same,inhibition at 10 µM,5-HT1A (h),< 10%
same,inhibition at 1 µM,M2 (h),< 10%
same,inhibition at 10 µM,M2 (h),< 10%
same,IC50,ERβ,> 1.5 µM
same,activity at 1 µM,MAPK1(h),91%
same,activity at 10 µM,MAPK1(h),112%
same,EC50,delta; agonist,> 12.5 µM
same,IC50,delta; antagonist,> 12.5 µM
same,inhibition at 1 µM,5-HT-T,< 10%
same,inhibition at 10 µM,5-HT-T,< 10%
same,inhibition at 1 µM,H1 (h),< 10%
same,inhibition at 10 µM,H1 (h),< 10%
same,inhibition at 1 µM,ETA (h),< 10%
same,inhibition at 10 µM,ETA (h),< 10%
same,activity at 1 µM,MAPK2(h),124%
same,activity at 10 µM,MAPK2(h),127%
same,inhibition at 1 µM,B2 (h),< 10%
same,inhibition at 10 µM,B2 (h),< 10%
same,EC50,ADRA2A; agonist,> 12.5 µM
same,IC50,ADRA2A; antagonist,> 12.5 µM
same,genetic toxicity,rat bone marrow,negative
same,activity at 1 µM,GSK3α(h),93%
same,activity at 10 µM,GSK3α(h),104%
same,EC50,5HT1A; agonist,> 12.5 µM
same,IC50,5HT1A; antagonist,> 12.5 µM
same,activity at 1 µM,CLK2(h),108%
same,activity at 10 µM,CLK2(h),99%
same,activity at 1 µM,EphA2(h),99%
same,activity at 10 µM,EphA2(h),102%
same,activity at 1 µM,PDGFRβ(h),103%
same,activity at 10 µM,PDGFRβ(h),143%
same,IC50,ERRγ,> 10 µM
same,activity at 1 µM,CHK1(h),97%
same,activity at 10 µM,CHK1(h),132%
same,activity at 1 µM,CDK1/cyclinB(h),96%
same,activity at 10 µM,CDK1/cyclinB(h),108%
same,EC50,KOP; agonist,> 12.5 µM
same,IC50,KOP; antagonist,> 12.5 µM
same,inhibition at 1 µM,A2A (h),< 10%
same,inhibition at 10 µM,A2A (h),< 10%
